From patent US20260285853A1, “COMPOUNDS AND METHODS FOR MODULATING SPLICING” (REMIX THERAPEUTICS INC., priority 2023, published 2026)
Where two headings read alike, the source gives them in different places.

What was measured:
Type in all cases: cell-based
HTT mRNA [1] = test: Splicing RT-qPCR assay (THP), Table 2A
MYB mRNA [2] = test: Splicing RT-qPCR assay (THP), Table 2A
HTT mRNA [3] = test: Gene panel canonical junction qPCR assay, decrease in CJ mRNA, Table 3
Procedure, shortened: (§1)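 Canonical exon-junction (CJ) transcript measured by 5′ nuclease RT-qPCR, normalized to GAPDH, GUSB or PPIA and to DMSO control (2^(−ΔΔCt)). A673 or K562 cells treated 24 h at 37° C with an 11-point 3-fold dilution series, top 10 uM, DMSO ≤0.25%. IC50 from 4-parameter logistic fit of percentage CJ decrease.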

MYB mRNA [4] = test: as above
Procedure, shortened: as §1

[5] = tested on: SH-SY5Y (human neuroblastoma) cells; test: Cell viability, Cell Titer Glo 2.0 assay; conditions: read-out: Viability SHSY5Y.3 GI50
Procedure, shortened: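 SH-SY5Y cells were exposed to serially diluted compounds in IMDM with 10% FBS and 0.1% DMSO for 72 hours at 37° C., 5% CO2. Viability was measured by CellTiter-Glo 2.0 luminescence, with medium-only wells as blank.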

[6] = Table 2A, THP, HTT alternative junction (AJ) mRNA, read-out: HTT AJ (AC50, increase in alternative junction mRNA)
[7] = Table 2A, THP, HTT canonical junction (CJ) mRNA, read-out: HTT CJ (IC50, decrease in canonical junction mRNA)
[8] = Table 2A, THP, MYB alternative junction (AJ) mRNA, read-out: MYB AJ (AC50, increase in alternative junction mRNA)
[9] = Table 2A, THP, MYB canonical junction (CJ) mRNA, read-out: MYB CJ (IC50, decrease in canonical junction mRNA)
[10] = decrease in CJ mRNA levels, canonical junction qPCR, gene panel
[11] = Table 2A (THP), AJ mRNA increase, read-out: HTT AJ (increase in alternative junction mRNA, AC50)
[12] = Table 2A (THP), CJ mRNA decrease, read-out: HTT CJ (decrease in canonical junction mRNA, IC50)
[13] = Table 2A (THP), AJ mRNA increase, read-out: MYB AJ (increase in alternative junction mRNA, AC50)
[14] = Table 2A (THP), CJ mRNA decrease, read-out: MYB CJ (decrease in canonical junction mRNA, IC50)
[15] = decrease in canonical junction (CJ) mRNA, gene panel qPCR, Table 3

Row | Structure (SMILES) | IC50 (HTT mRNA [1]; [7]) [µM] | IC50 (MYB mRNA [2]; [9]) [µM] | IC50 (HTT mRNA [3]; [10]) [µM] | IC50 (MYB mRNA [4]; [10]) [µM] | GI50 [5] [µM] | IC50 (HTT mRNA [1]; [12]) [µM] | IC50 (MYB mRNA [2]; [14]) [µM] | IC50 (HTT mRNA [3]; [15]) [µM] | IC50 (MYB mRNA [4]; [15]) [µM] | AC50 (HTT mRNA [1]; [6]) [µM] | AC50 (MYB mRNA [2]; [8]) [µM] | AC50 (HTT mRNA [1]; [11]) [µM] | AC50 (MYB mRNA [2]; [13]) [µM]
1 | CCNC1CCN(c2cc(F)c(C(=O)Nc3cn4ccnc4cc3OC)c3nn(C)cc23)CC1 [Compound 701, 4-[4-(ethylamino)-1-piperidyl]-6-fluoro-N-(7-methoxyimidazo[1,2-a]pyridin-6-yl)-2-methyl-indazole-7-carboxamide] | > 10 | 0.1 to 1 | > 10 | 0.1 to 1 | > 10 |  |  |  |  | > 10 | 0.1 to 1 |  | 
2 | Cc1cn2cc(NC(=O)c3ccc(N4CCC(NC5CC5)CC4)c4cn(C)nc34)nc2c(CNC(C)C(F)(F)F)n1 (stereo not shown) [Compound 791, 4-[4-(cyclopropylamino)-1-piperidyl]-2-methyl-N-[6-methyl-8-[[(2,2,2-trifluoro-1-methyl-ethyl)amino]methyl]imidazo[1,2-a]pyrazin-2-yl]indazole-7-carboxamide] | > 10 | > 10 | > 10 | > 10 | 1 to 10 |  |  |  |  | > 10 | > 10 |  | 
3 | COc1cc2nn(C)cc2cc1NC(=O)c1ccc(NC2CCCNCC2)c2cn(C)nc12 (stereo not shown) [Compound 547] |  |  |  |  | > 10 | 1 to 10 | 1 to 10 | 1 to 10 | 1 to 10 |  |  | 1 to 10 | 1 to 10
4 | CCNC1C(C)CN(c2ccc(C(=O)Nc3cc4cn(C)nc4cc3OC)c3nn(C)cc23)CC1C (stereo not shown) [Compound 687] | > 10 | 1 to 10 | > 10 | 1 to 10 | > 10 |  |  |  |  | > 10 | 1 to 10 |  | 
5 | Cn1cc2c(N3CCC(NC4CC4)CC3)cc(F)c(C(=O)Nc3cc4cn(C)nc4n(C)c3=O)c2n1 [Compound 426, 4-[4-(cyclopropylamino)-1-piperidy1]-N-(2,7-dimethyl-6-oxo-pyrazolo[3,4-b]pyridin-5-y1)-6-fluoro-2-methyl-indazole-7-carboxamide] |  |  |  |  | 1 to 10 | 1 to 10 | 0.1 to 1 | 1 to 10 | 0.1 to 1 |  |  | 1 to 10 | 0.1 to 1
6 | Cc1nc(CNS(C)(=O)=O)cn2cc(NC(=O)c3c(F)cc(N4CCC(NC5CC5)CC4)c4cn(C)nc34)nc12 [Compound 416, 4-(4-(cyclopropylamino)-piper-idin-1-yl)-6-fluoro-2-meth-yl-N-(8-methyl-6-(methyl-sulfonamidomethyl)-imidazo[1,2-a]pyrazin-2-yl)-2H-indazole-7-carbox-amide 2,2,2-trifluoroacetate] |  |  |  |  | > 10 | > 10 | > 10 | > 10 | > 10 |  |  | > 10 | > 10
7 | Cc1cn2cc(NC(=O)c3ccc(N4CCC(NC5CC5)CC4)c4cn(C)nc34)cc(CNS(C)(=O)=O)c2n1 [Compound 816, 4-[4-(cyclopropylamino)-1-piperidyl]-N-[8-(methanesulfonamidomethyl)-2-methyl-imidazo[1,2-a]pyridin-6-yl]-2-methyl-indazole-7-carboxamide] | > 10 | 1 to 10 | > 10 | 1 to 10 | > 10 |  |  |  |  | > 10 | 1 to 10 |  | 
8 | Cn1cc2c(N3CCC(NC4CC4)CC3)cc(F)c(C(=O)Nc3ccc4c(c3)COB4O)c2n1 [Compound 481, 4-(4-(cyclopropyl-amino)piperidin-1-yl)-6-fluoro-N-(1-hydroxy-1,3-dihydrobenzo[c][1,2]-oxaborol-5-y1)-2-methyl-2H-indazole-7-carboxamide 2,2,2-trifluoroacetate] |  |  |  |  | 1 to 10 | > 10 | > 10 | > 10 | > 10 |  |  | > 10 | 1 to 10
9 | CN(C)c1ccc(C(=O)Nc2cc(CNS(C)(=O)=O)c3nn(C)cc3c2)c2nn(C)cc12 [Compound 841] | > 10 | > 10 | > 10 | > 10 | > 10 |  |  |  |  | > 10 | > 10 |  | 
10 | CCNC1CCN(c2ccc(C(=O)Nc3cc(Cc4ccccc4)c4nc(C)cn4c3)c3nn(C)cc23)CC1 [Compound 338, N-(8-benzyl-2-methylimidazo-[1,2-a]pyridin-6-yl)-4-[4-(ethylamino)-1-piperidyl]-2-methyl-indazole-7-carboxamide] |  |  |  |  | 0.1 to 1 | 1 to 10 | < 0.1 | 1 to 10 | < 0.1 |  |  | 1 to 10 | < 0.1
11 | CCNC1CCN(c2ccc(C(=O)Nc3cn4cc(C)nc(C)c4n3)c3nc(C)cn23)CC1 [Compound 612, N-(6,8-dimethyl-imidazo-[1,2-a]pyrazin-2-y1)-5-[4-(ethylamino)-1-piperidyl]-2-methyl-imidazo[1,2-a]pyridine-8-carboxamide] | > 10 | 0.1 to 1 | > 10 | 0.1 to 1 | 1 to 10 |  |  |  |  | > 10 | 0.1 to 1 |  | 
12 | COc1c(NC(=O)c2ccc(N3CCC(NC4CC4)CC3)c3cn(C)nc23)cc2cn(C)nc2c1CNS(C)(=O)=O [Compound 819] | 1 to 10 | 1 to 10 | 1 to 10 | 1 to 10 | 1 to 10 |  |  |  |  | 1 to 10 | 1 to 10 |  | 

Now from value to compound, other results behind:

Row | IC50 (HTT mRNA [1]; [7]) [µM] | IC50 (MYB mRNA [2]; [9]) [µM] | IC50 (HTT mRNA [3]; [10]) [µM] | IC50 (MYB mRNA [4]; [10]) [µM] | GI50 [5] [µM] | IC50 (HTT mRNA [1]; [12]) [µM] | IC50 (MYB mRNA [2]; [14]) [µM] | IC50 (HTT mRNA [3]; [15]) [µM] | IC50 (MYB mRNA [4]; [15]) [µM] | Structure (SMILES) | AC50 (HTT mRNA [1]; [6]) [µM] | AC50 (MYB mRNA [2]; [8]) [µM] | AC50 (HTT mRNA [1]; [11]) [µM] | AC50 (MYB mRNA [2]; [13]) [µM]
13 | > 10 | 0.1 to 1 | > 10 | 0.1 to 1 | 0.1 to 1 |  |  |  |  | COc1nc2c(C(=O)Nc3cc4cn(C)nc4nc3OC)ccc(N3C[C@H](C)N[C@@H](C)C3)c2s1 [Compound 809] | > 10 | < 0.1 |  | 
14 |  |  |  |  | 0.1 to 1 | 1 to 10 | < 0.1 | 1 to 10 | < 0.1 | COc1c(NC(=O)c2c(F)cc(N3CC[C@H](NC4CC4)C4(CC4)C3)c3cn(C)nc23)cn2cc(C)nc2c1F [Compound 367, 4-[(8S)-8-(cyclopropylamino)-5-azaspiro[2.5]octan-5-yl]-6-fluoro-N-(8-fluoro-7-methoxy-2-methyl-imidazo[1,2-a]pyridin-6-yl)-2-methyl-indazole-7-carboxamide] |  |  | 1 to 10 | < 0.1
15 | 1 to 10 | < 0.1 | 1 to 10 | < 0.1 | 0.1 to 1 |  |  |  |  | C[C@H]1CN(c2ccc(C(=O)Nc3cc(F)c4nn(C)cc4c3)c3nc(CN)sc23)C[C@H](C)N1 [Compound 707, 2-(aminomethyl)-7-[(3S,5S)-3,5-dimethylpiperazin-1-yl]-N-(7-fluoro-2-methyl-indazol-5-yl)-1,3-benzothiazole-4-carboxamide] | 0.1 to 1 | < 0.1 |  | 
16 | 0.1 to 1 | < 0.1 | 0.1 to 1 | < 0.1 | < 0.1 |  |  |  |  | COc1nc2c(C(=O)Nc3cc(F)c4nn(C)nc4c3)ccc(N3C[C@H](C)N[C@@H](C)C3)c2s1 [Compound 756, 7-[(3S,5S)-3,5-dimethylpiperazin-1-yl]-N-(7-fluoro-2-methyl-benzotriazol-5-yl)-2-methoxy-1,3-benzothiazole-4-carboxamide] | 0.1 to 1 | < 0.1 |  | 
17 | 0.1 to 1 | < 0.1 | 0.1 to 1 | < 0.1 | 0.1 to 1 |  |  |  |  | Cc1cn2cc(NC(=O)c3ccc(N4CCC(NC5CC5)CC4)c4cc(CF)nn34)cc(F)c2n1 [Compound 623, 4-[4-(cyclopropylamino)-1-piperidyl]-2-(fluoromethyl)-N-(8-fluoro-2-methyl-imidazo[1,2-a]-pyridin-6-y1)pyrazolo[1,5-a]pyridine-7-carboxamide] | 0.1 to 1 | < 0.1 |  | 
18 | 0.1 to 1 | < 0.1 | 0.1 to 1 | < 0.1 | 0.1 to 1 |  |  |  |  | CCNC1CCN(c2ccc(C(=O)Nc3cc(F)c4nn(C)cc4c3)c3nc(OC)sc23)CC1 [Compound 704, 7-(4-(ethylamino)piperidin-1-yl)-N-(7-fluoro-2-methyl-2H-indazol-5-yl)-2-methoxybenzo[d]thiazole-4-carboxamide 2,2,2-trifluoroacetate] | 0.1 to 1 | < 0.1 |  | 
19 |  |  |  |  | < 0.1 | 0.1 to 1 | < 0.1 | 0.1 to 1 | < 0.1 | COc1c(NC(=O)c2c(F)cc(N3CCC(NC4CC4)CC3)c3cn(C)nc23)cc2cn(C)nc2c1F [Compound 405, 4-[4-(cyclopropylamino)-1-piperidyl]-6-fluoro-N-(7-fluoro-6-methoxy-2-methyl-indazol-5-yl)-2-methyl-indazole-7-carboxamide] |  |  | 0.1 to 1 | < 0.1
